According to patent US11382878B2, “Use of metformin and sodium butyrate for treating conditions induced by chronic inflammation” (Johnpro Biotech Inc., priority 2017, dated 2022):

How the values were obtained:
[1] = system: radiation induced inflammation of the rectum; assay: Radiation induced rectum inflammation in mice (gross rectum observation, H&E staining)
radiation proctitis = assay: Clinical case: radiation proctitis patient treated by enema; assay type: in vivo, human; settings: one patient, grade 3 radiation proctitis, sulfasalazine and steroids enema treatment for 6 months

| Compound | stool in the rectum (rectum mucosa function of absorbing water) ([1]; 30 Gy radiation on Day 1, rectal enema once daily Day 8 to Day 14, observed Day 14 (FIG. 4A, 4B)) | crypt tissue / damage to the intestine mucosa (H&E stain) ([1]; 30 Gy radiation on Day 1, rectal enema once daily Day 8 to Day 14, rectum samples Day 14 (FIG. 5A)) | response of symptoms to prior treatment (radiation proctitis) |
| --- | --- | --- | --- |
| C[C@]12CCC(=O)C=C1CC[C@@H]1[C@@H]2C(=O)C[C@@]2(C)[C@H]1CC[C@]2(O)C(=O)CO [cortisone] | a significant amount of loose stool was seen in the rectum | the crypt tissue was not observed |  |
| O=C(O)c1cc(/N=N/c2ccc(S(=O)(=O)Nc3ccccn3)cc2)ccc1O [sulfasalazine] |  |  | refractory |
